Each block holds one compound with its values, some of them ahead of it.
Target: T1, UBE2O C375 (Q9C0C9) (Homo sapiens, UniProt Q9C0C9)
T1 sequence (Q9C0C9 1-1292): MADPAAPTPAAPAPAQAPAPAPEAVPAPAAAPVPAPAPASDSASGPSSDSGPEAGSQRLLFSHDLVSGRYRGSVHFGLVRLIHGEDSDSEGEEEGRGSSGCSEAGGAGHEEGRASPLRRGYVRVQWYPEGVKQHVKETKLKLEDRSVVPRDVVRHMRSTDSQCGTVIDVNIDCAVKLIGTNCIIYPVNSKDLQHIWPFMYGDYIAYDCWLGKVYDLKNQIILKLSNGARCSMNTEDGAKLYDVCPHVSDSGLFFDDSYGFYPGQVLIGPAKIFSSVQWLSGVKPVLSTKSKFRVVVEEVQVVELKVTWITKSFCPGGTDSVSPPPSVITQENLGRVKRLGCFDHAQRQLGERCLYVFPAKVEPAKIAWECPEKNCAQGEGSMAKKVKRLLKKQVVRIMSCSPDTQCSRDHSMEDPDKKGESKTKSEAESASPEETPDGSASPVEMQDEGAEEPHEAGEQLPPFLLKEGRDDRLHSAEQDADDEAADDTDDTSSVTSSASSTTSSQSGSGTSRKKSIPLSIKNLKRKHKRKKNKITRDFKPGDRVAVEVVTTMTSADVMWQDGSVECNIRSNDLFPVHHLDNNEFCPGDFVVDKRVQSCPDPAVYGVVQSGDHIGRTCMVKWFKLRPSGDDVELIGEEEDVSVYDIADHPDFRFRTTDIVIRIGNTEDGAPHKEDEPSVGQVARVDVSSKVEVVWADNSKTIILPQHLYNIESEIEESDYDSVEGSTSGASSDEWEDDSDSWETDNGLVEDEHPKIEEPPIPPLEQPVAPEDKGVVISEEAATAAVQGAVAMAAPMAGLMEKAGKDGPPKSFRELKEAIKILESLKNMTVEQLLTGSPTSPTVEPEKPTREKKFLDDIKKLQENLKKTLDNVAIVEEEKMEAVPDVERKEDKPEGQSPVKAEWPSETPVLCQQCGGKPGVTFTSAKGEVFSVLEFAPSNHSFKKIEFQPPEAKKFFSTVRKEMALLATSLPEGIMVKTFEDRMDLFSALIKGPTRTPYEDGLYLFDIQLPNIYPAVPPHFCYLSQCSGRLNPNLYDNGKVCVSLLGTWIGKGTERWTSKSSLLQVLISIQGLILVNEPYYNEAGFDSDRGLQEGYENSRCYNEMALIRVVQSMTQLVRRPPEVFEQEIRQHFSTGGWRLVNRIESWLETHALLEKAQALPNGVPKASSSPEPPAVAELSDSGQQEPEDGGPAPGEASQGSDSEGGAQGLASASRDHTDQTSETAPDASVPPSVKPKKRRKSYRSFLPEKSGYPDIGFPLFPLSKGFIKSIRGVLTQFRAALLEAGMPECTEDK
Experiment: Competitive isoTOP-ABPP, cell lysates
Type: binding

R value (DMSO/fragment) (500 μM, in vitro, MDA-MB-231): 9.8 | R value (DMSO/fragment) (500 μM, invitro, ramos): 4.1
SMILES: O=C(CCl)Nc1cc(C(F)(F)F)cc(C(F)(F)F)c1 [compound 3]

isoTOP-ABPP ratio, Q9C0C9_C375 (500 μM, invitro, ramos): 0.8
SMILES: O=C(CCl)N1CCN(S(=O)(=O)c2ccccc2F)CC1 [compound 10]

isoTOP-ABPP ratio (reactivity profile), Q9C0C9_C375 (500 μm in-vitro ramos): 2.4
SMILES: O=C(CCl)NC12CC3CC(CC(C3)C1)C2 [compound 21]

isoTOP-ABPP ratio (reactivity profile), Q9C0C9_C375 (500 μm in-vitro ramos): 1.4
SMILES: N#C/C(=C\c1cc(C(F)(F)F)cc(C(F)(F)F)c1)C(N)=O [compound 23]

isoTOP-ABPP ratio (reactivity profile), Q9C0C9_C375 (500 μm in-vitro ramos_231): 0.7
SMILES: CC(C)CCOCCNC(=O)CCl [compound 27]

isoTOP-ABPP reactivity profile ratio, Q9C0C9_C375 (500 μm, in-vitro_ramos): 0.8
SMILES: O=C(CCl)Nc1cccc2ncccc12 [compound 51]

From patent US10670605B2, “Cysteine reactive probes and uses thereof” (The Scripps Research Institute, priority 2015, dated 2020)
